The source of these data is US20120121540A1 (priority 2007, published 2012).

The assay in a line: HCV replicon assay (luciferase reporter, ET cell line). As to conditions: Hepatitis C virus, HCV replicon luciferase activity in ET cells. Type of assay: cell-based. An outline of the steps:
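EC50 and, via WST-1 cytotoxicity, TC50 were fitted with a Hill-coefficient equation to % inhibition across 10 two-fold dilutions. Compounds at 0.1 nM-[…] with 0.5% DMSO were applied 24 h post-seeding to replicon-bearing ET cells (luc-ubi-neo/NS3-5B, adaptive mutations). Firefly luciferase signal was measured after 48-72 h.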
Usually inhibition stands for how much of the control response was suppressed. Read a low inhibition as a response near the control. As to `O=C(c1nc2c(C(F)(F)F)cc(-c3ccco3)cn2c1Cl)N1CCC(O)(c2ccccc2)C1` (stereo not shown) [Compound 317, (3-Chloro-6-furan-2-yl-8-trifluoromethyl-imidazo[1,2-a]pyridin-2-yl)-(3-hydroxy-3-phenyl-pyrrolidin-1-yl)-methanone], the inhibition at 10 µM was 94.6%.
Take `O=C(c1nc2c(C(F)(F)F)cc(-c3ccco3)cn2c1Cl)N1CCc2ccccc21` [Compound 380, (3-Chloro-6-furan-2-yl-8-trifluoromethyl-imidazo[1,2-a]pyridin-2-yl)-(2,3-dihydro-indol-1-yl)-methanone]: the inhibition at 10 µM was determined as 20.2%.
For `O=C(c1nc2c(C(F)(F)F)cc(-c3ccco3)cn2c1Cl)N1CCN(c2ccccc2)CC1` [Compound 323, (3-Chloro-6-furan-2-yl-8-trifluoromethyl-imidazo[1,2-a]pyridin-2-yl)-(4-phenyl-piperazin-1-yl)-methanone] the value was 54.6%.
For `O=C(NC(C(=O)NCCCN1CCOCC1)c1cccs1)c1nc2c(C(F)(F)F)cc(-c3ccco3)cn2c1Cl` (stereo not shown) [Compound 171, 3-Chloro-6-furan-2-yl-8-trifluoromethyl-imidazo[1,2-a]pyridine-2-carboxylic acid [(3-morpholin-4-yl-propylcarbamoyl)-thiophen-2-yl-methyl]-amide] the value was 99.4%.
As for `O=C(c1nc2c(C(F)(F)F)cc(-c3cn[nH]c3)cn2c1Br)N1CCC(c2ccc(F)cc2)C1` (stereo not shown) [Compound 256, [3-Bromo-6-(1H-pyrazol-4-yl)-8-trifluoromethyl-imidazo[1,2-a]pyridin-2-yl]-[3-(4-fluoro-phenyl)-pyrrolidin-1-yl]-methanone], the figure is 92%; as for `CN(C)CCN(Cc1cccs1)C(=O)c1nc2c(C(F)(F)F)cc(-c3ccco3)cn2c1Cl` [Compound 319, 3-Chloro-6-furan-2-yl-8-trifluoromethyl-imidazo[1,2-a]pyridine-2-carboxylic Acid (2-dimethylamino-ethyl)-thiophen-2-ylmethyl-amide], 58.8%; as for `Cn1cc(-c2cc(C(F)(F)F)c3nc(C(=O)NCc4cccs4)c(Cl)n3c2)cn1` [Compound 280, 3-Chloro-6-(1-methyl-1H-pyrazol-4-yl)-8-trifluoromethyl-imidazo[1,2-a]pyridine-2-carboxylic Acid (thiophen-2-ylmethyl)-amide], 83.9%.
The compound `O=C(c1nc2c(C(F)(F)F)cc(-c3ccoc3)cn2c1Cl)N1CCC(c2ccc(C(F)(F)F)cc2)C1` (stereo not shown) [Compound 336, (3-chloro-6-furan-3-yl-8-trifluoromethyl-imidazo[1,2-a]pyridin-2-yl)-[3-(4-trifluoromethyl-phenyl)-pyrrolidin-1-yl]-methanone] returned an inhibition at 10 µM of 73.2%.
For `O=C(NCc1cccs1)c1nc2c(C(F)(F)F)cc(-c3ccccc3)nn2c1Br` [Compound 250, 3-Bromo-6-phenyl-8-trifluoromethyl-imidazo[1,2-b]pyridazine-2-carboxylic Acid(thiophen-2-ylmethyl)-amide] the value was 92%; for `O=C(c1nc2c(C(F)(F)F)cc(-c3ccoc3)cn2c1Cl)N1CC=C(c2ccoc2)C1` [Compound 429, (3-Chloro-6-furan-3-yl-8-trifluoromethyl-imidazo[1,2-a]pyridin-2-yl)-(3-furan-3-yl-2,5-dihydro-pyrrol-1-yl)-methanone], 98%.
For `O=C(c1nc2c(C(F)(F)F)cc(-c3ccccc3)cn2c1Br)N1CCC(c2cccc(F)c2)C1` (stereo not shown) [Compound 640, (3-Bromo-6-phenyl-8-trifluoromethyl-imidazo[1,2-a]pyridin-2-yl)-[3-(3-fluoro-phenyl)-pyrrolidin-1-yl]-methanone] the value was 88.1%; for `O=C(c1nc2c(C(F)(F)F)cc(-c3ccoc3)cn2c1Cl)N1CC=C(c2nccs2)CC1` [Compound 559, (3-Chloro-6-furan-3-yl-8-trifluoromethyl-imidazo[1,2-a]pyridine-2-yl)-(4-thiazol-2-yl-3,6-dihydro-2H-pyridin-1-yl)-methanone], 99.1%.
`O=C(NCc1cccs1)c1nc2c(C(F)(F)F)cc(-c3ccccc3)cn2c1Cl` [Compound 177, 3-Chloro-6-phenyl-8-trifluoromethyl-imidazo[1,2-a]pyridine-2-carboxylic acid (thiophen-2-ylmethyl)-amide]: the inhibition at 10 µM was determined as 93.2%.
As for `O=C(c1nc2c(C(F)(F)F)cc(-c3cc[nH]c3)cn2c1Cl)N1CCC(c2cccc(F)c2)C1` (stereo not shown) [Compound 524, [3-Chloro-6-(1H-pyrrol-3-yl)-8-trifluoromethyl-imidazo[1,2-a]pyridin-2-yl]-[3-(3-fluoro-phenyl)-pyrrolidin-1-yl]methanone], the figure is 91%; as for `CCc1c(C(=O)NCc2cccs2)nc2c(C(F)(F)F)cc(-c3ccco3)cn12` [Compound 194, 3-Ethyl-6-furan-2-yl-8-trifluoromethyl-imidazo[1,2-a]pyridine-2-carboxylic acid (thiophen-2-ylmethyl)-amide], 89.5%; as for `O=C(c1nc2c(C(F)(F)F)cc(-c3cn[nH]c3)cn2c1Cl)N1CC=C(c2cscn2)C1` [Compound 445, [3-Chloro-6-(1H-pyrazol-4-yl)-8-(trifluoromethyl)imidazol[1,2-a]pyridine-2-yl][3-(1,3-thiazol-4-yl)-2,5-dihydro-1H-pyrrol-1-yl]methanone], 93.9%.
Take `COc1ccccc1CNC(=O)c1nc2c(C(F)(F)F)cc(-c3ccco3)cn2c1Cl` [Compound 190, 3-Chloro-6-furan-2-yl-8-trifluoromethyl-imidazo[1,2-a]pyridine-2-carboxylic acid 2-methoxy-benzylamide]: the inhibition at 10 µM came out at 68.1%.
In turn, `O=C(NCC1CCCO1)c1cc2cc(-c3ccccc3)cc(I)n2n1` (stereo not shown) [Compound 131, 7-Iodo-5-phenyl-pyrazolo[1,5-a]pyridine-2-carboxylic Acid (tetrahydro-furan-2-ylmethyl)-amide] displayed an inhibition at 10 µM of 49.2%.
For `CN1CCN(C(=O)c2nc3c(C(F)(F)F)cc(-c4ccco4)cn3c2Cl)CC1c1ccccc1` (stereo not shown) [Compound 318, (3-Chloro-6-furan-2-yl-8-trifluoromethyl-imidazo[1,2-a]pyridin-2-yl)-(4-methyl-3-phenyl-piperazin-1-yl)-methanone] the value was 62.4%; for `O=C(c1nc2c(C(F)(F)F)cc(-c3ccoc3)cn2c1Cl)N1CCC(c2ccccc2Cl)CC1` [Compound 541, (3-Chloro-6-furan-3-yl-8-trifluoromethyl-imidazo[1,2-a]pyridin-2-yl)-[4-(2-chloro-phenyl)-piperidin-1-yl]-methanone], 89.7%.
As for `O=C(NCc1cccs1)c1nc2c(C(F)(F)F)cc(-c3cnoc3)cn2c1Cl` [Compound 288, 3-Chloro-6-isoxazol-4-yl-8-trifluoromethyl-imidazo[1,2-a]pyridine-2-carboxylic Acid(thiophen-2-ylmethyl)-amide], the figure is 85%; as for `COc1cccc(C2CCN(C(=O)c3nc4c(C(F)(F)F)cc(-c5ccoc5)cn4c3Cl)C2)c1` (stereo not shown) [Compound 451, (3-Chloro-6-furan-3-yl-8-trifluoromethyl-imidaz [1,2-a]pyridin-2-yl)-[3-(3-methoxy-phenyl)-pyrrolidin-1-yl]-methanone], 73.5%.
